{"source": "patent US20050106195A1", "about": "“N-octanoyl amino acid composition for slimming the human body” (priority 2003, published 2005)", "test_system": "human adipocytes", "experiment": "In vitro lipolytic activity: free fatty acid release from isolated human adipocytes in suspension", "type": "cell-based", "details": "2 h at 37° C.; for Free fatty acid concentration: mean of five assays, control 11.54 ± 2.71", "protocol": "This is because triglycerides are stored in the adipocytes and constitute the fat reserve. For this reserve to diminish, which is the desired aim when slimming products are used, the triglycerides must be hydrolysed so that the fatty acids can be removed from the cell. Hydrolysis of the triglycerides to nonesterified fatty acids and glycerol is called lipolysis.\nThe method described consists in incubating the products in the presence of human adipocytes in suspension, followed by the measurement of the nonesterified fatty acid level in the adipocyte incubation medium. The free fatty acid level thus reflects the hydrolysis of the triglycerides present in the adipocytes.\nThe test is carried out using human adipocytes isolated and prepared as a cellular suspension. The adipocytes are isolated from the subcutaneous abdominal adipose tissue recovered during plastic surgery operations (abdominal plastic surgery operations) performed on women. The cells are isolated from fresh tissue. The adipose tissue is isolated and dissociated by the action of a collagenase (SIGMA™, 1 mg/ml, 30 minutes at 37° C., gentle stirring). Collagenase digests the connective tissue present in the adipose tissue. After digestion, the cells are filtered and washed in an appropriate culture medium containing MEM medium free of phenol red, free of glutamine (SIGMA)+2.2 mg/ml of sodium bicarbonate (GIBCO)+50 IU of penicillin (BIOWHITTAKER™)+50 μg/ml of streptomycin (BIOWHITTAKER™)+1% (v/v) of L-glutamine (BIOWHITTAKER™)+0.5% of lipid-free serum albumin (SIGMA™). The adipocyte suspension is used immediately after its preparation.\nThe test products are diluted in the adipocyte culture medium. They are incubated with the cells in suspension for two hours at 37° C. (250 μl of product+250 μl of adipocyte suspension).\nAfter the incubation, the cell lysis is checked visually by the presence of a lipid layer at the surface of the cellular suspension. The supernatant media are collected. The free fatty acids are assayed by spectrophotometry using a commercial kit (NEFA™ C kit, WAKO), with reference to a fatty acid calibration series. The lypolytic activity of the products is evaluated relative to a control group incubated in the presence of adipocytes and in the absence of product. The reactivity of the adipocytes is systematically checked for the measurement of the lipolytic activity of the reference products, caffeine (1,3,7-trimethyl-xanthine) and theophylline (1,3-dimethyl-2,6-dihydroxy-purine). Five assays are performed for each of the test products. The lipolytic activity of LIPACIDE™ C8G, which contains active material 100% N-octanoylglycine, was thus evaluated.", "key": {"[1]": {"details": "incubation concentration 0.0001 wt %/volume"}, "[2]": {"details": "incubation concentration 0.0005 wt %/volume"}, "[3]": {"details": "incubation concentration 0.0010 wt %/volume"}, "[4]": {"details": "incubation concentration 0.0019 wt %/volume"}}, "data": [{"smiles": "CCCCCCCC(=O)NCC(=O)O", "note": "[LIPACIDE ™ C8G, N-octanoylglycine]", "values": [{"measurement": "Lipolytic activity (compared with the control = 100)", "setting": "[1]", "value": 206}, {"measurement": "Free fatty acid concentration", "setting": "[1]", "value": "23.83 ± 5.11", "unit": "µM"}, {"measurement": "Lipolytic activity (compared with the control = 100)", "setting": "[2]", "value": 219}, {"measurement": "Free fatty acid concentration", "setting": "[2]", "value": "25.30 ± 2.70", "unit": "µM"}, {"measurement": "Lipolytic activity (compared with the control = 100)", "setting": "[3]", "value": 223}, {"measurement": "Free fatty acid concentration", "setting": "[3]", "value": "25.75 ± 0.86", "unit": "µM"}]}, {"smiles": "Cn1c(=O)c2c(ncn2C)n(C)c1=O", "note": "[Caffeine, 1,3,7-trimethyl-xanthine, reference compound]", "values": [{"measurement": "Lipolytic activity (compared with the control = 100)", "setting": "[4]", "value": 131}, {"measurement": "Free fatty acid concentration", "setting": "[4]", "value": "15.10 ± 4.11", "unit": "µM"}]}]}
